For 22 compounds, Ki results are on record in PMC7470111, “Escherichia coli γ-carbonic anhydrase: characterisation and effects of simple aromatic/heterocyclic sulphonamide inhibitors” (Journal of Enzyme Inhibition and Medicinal Chemistry, 2020).

Broadly, the Ki is the dissociation constant of the complex between target and ligand, obtained from inhibition or displacement. A high value points to lower affinity.

SMILES strings stand for the structures.

The target of one test is T1, EcoCAγ (Escherichia coli, UniProt P0A9W9).
T1 construct: gene yrdA; recombinant full-length WP_009008373.1, N-terminal His-tag, 72 extra N-terminal residues versus YrdA
T1 sequence (P0A9W9 1-184): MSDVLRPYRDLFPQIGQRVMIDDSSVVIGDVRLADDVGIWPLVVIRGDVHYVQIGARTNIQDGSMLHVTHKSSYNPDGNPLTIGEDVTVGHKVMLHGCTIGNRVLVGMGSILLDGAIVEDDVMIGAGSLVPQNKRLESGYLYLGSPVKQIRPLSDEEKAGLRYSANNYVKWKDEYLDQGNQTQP
Kind of test: biochemical.
Conditions: not given
The protocol:
The CO2 hydration activity performed by the EcoCAγ was monitored using an Applied Photophysics stopped-flow instrument. […] To determine the kinetic parameters by Lineweaver-Burk plots and the inhibition constants, a concentration of CO2 between 1.7 to 17 mM was used. At least six measurements of the original 5–10% reaction were used to assess the initial velocity for each inhibitor. The uncatalyzed rates were identically determined and detracted from the total observed rates. Stock inhibitor solutions (10–100 mM) were prepared in distilled-deionized water and dilutions up to 0.01 mM were done with the buffer test. Inhibitor and enzyme solutions were preincubated together for 15 min at room temperature prior to assay, in order to allow for the formation of the E-I complex or for the eventual active site mediated hydrolysis of the inhibitor. The inhibition constants were obtained by non-linear least-squares methods using PRISM 6 and the Cheng-Prusoff equation, as reported earlier[12]^,[14]^,[68], and represent the mean from at least three different determinations. h CAI and hCA II were recombinant enzymes obtained in-house. The synthetic E. coli gene encoding for the EcoCAγ (Accession number: WP_009008373.1) was synthesised by the Invitrogen GeneArt (ThermoFisher Scientific), a company specialised in gene synthesis, and cloned into the expression vector pET100D-Topo/γ-CA. Briefly, the gene was designed to produce the recombinant EcoCAγ as fusion proteins with a tag containing nucleotides encoding for six histidines (His-Tag) at the amino terminus of neosynthetized recombinant protein. Competent E. coli BL21 (DE3) codon plus cells (Agilent) were transformed as described by Del Prete et al.. Isopropyl β-D-1-thiogalactopyranoside (IPTG) at the concentration of 1 mM was added to the cellular culture to overexpress the recombinant EcoCAγ. After growth, the cells were harvested and disrupted by sonication. Cellular extract was purified using a nickel affinity column (His-Trap FF), which allows the interaction between the matrix functionalised with Ni^2+ ions and the His-Tag at the N-terminus of the protein. The HisTrap column (1 ml) was equilibrated with 20 ml equilibration buffer (50 mM Tris, 20 mM imidazole and 150 mM sodium chloride, pH 7.5) at 1 ml/min. The supernatant from the cellular lysate was loaded onto the column at 1 ml/min, and eluted from the column by fluxing imidazole (300 mM) at a flow of 0.5 ml/min in a buffer composed of 50 mM Tris and 300 mM sodium chloride, pH 7.5. The recovered EcoCAγ was 90% pure. The protein quantification was carried out by Bradford method (BioRAD).
Consider `NS(=O)(=O)c1cccc(S(N)(=O)=O)c1` [compound 3], for which the Ki was determined as 246 nM. Same read-out and setting: the figure for `Cc1ccc(S(N)(=O)=O)cc1` [compound 4] is 221 nM; for `NCCc1ccc(S(N)(=O)=O)cc1` [compound 6] it is 622 nM; for `Nc1ccc(S(N)(=O)=O)cc1F` [compound 7] it is 605 nM. The compound `Nc1ccc(S(N)(=O)=O)cc1Cl` [compound 8] gave a Ki of 671 nM.

Take `Nc1ccc(S(N)(=O)=O)cc1Br` [compound 9]: the Ki is 718 nM. The same measure, in the same setting: the same measure for `NS(=O)(=O)c1cc(Cl)cc(Cl)c1O` [compound 10]: 2580 nM; for `Nc1cc(C(F)(F)F)c(S(N)(=O)=O)cc1S(N)(=O)=O` [compound 11]: 1780 nM. In turn, `Nc1cc(Cl)c(S(N)(=O)=O)cc1S(N)(=O)=O` [compound 12] came in with an inhibitory constant (Ki) of 1950 nM. Same read-out and setting: the figure for `Nc1nnc(S(N)(=O)=O)s1` [compound 13] is 197 nM; for `Cn1nc(S(N)(=O)=O)sc1=N` [compound 14] it is 712 nM. As to `NS(=O)(=O)c1ccc(O)cc1` [compound 15], the affinity corresponds to a Ki of 1010 nM. `NS(=O)(=O)c1ccc(CO)cc1` [compound 16] had a Ki of 4240 nM. Still for that read-out and setting: the same measure for `NS(=O)(=O)c1ccc(CCO)cc1` [compound 17]: 1970 nM.

The compound `NS(=O)(=O)c1ccc(C(=O)O)cc1` [compound 18] showed a Ki of 2060 nM. On the same count and under the same terms, the figure for `Nc1nccc(Nc2ccc(S(N)(=O)=O)cc2)n1` [compound 19] is 1890 nM. The same measure, in the same setting: the figure for `Nc1ccc(S(=O)(=O)Nc2nnc(S(N)(=O)=O)s2)cc1` [compound 20] is 883 nM. The same measure, in the same setting: the same measure for `Nc1ccc(S(=O)(=O)Nc2ccc(S(N)(=O)=O)cc2)cc1` [compound 22]: 3500 nM; for `Nc1ccc(S(=O)(=O)NCc2ccc(S(N)(=O)=O)cc2)cc1` [compound 23]: 4040 nM; for `Nc1ccc(S(=O)(=O)NCCc2ccc(S(N)(=O)=O)cc2)cc1` [compound 24]: 4260 nM.

Staying with this test, now noted: inhibitor.
`Nc1cccc(S(N)(=O)=O)c1` [compound 1] showed a Ki of 314 nM. Compound `NS(=O)(=O)c1ccc(CCNS(=O)(=O)c2ccc([N+](=O)[O-])cc2CO)cc1` [compound 21] gave a Ki of 819 nM.
